Data reported in US11464784B2, “Inhibition of aminocylase 3 (AA3) in the treatment of cancer” (THE REGENTS OF THE UNIVERSITY OF CALIFORNIA, priority 2017, dated 2022).

What was measured:
[1] = system: colon cancer cell lines COLO 205, HCT 116, LS 513; assay: MTT cell viability, colon cancer cell lines; format: cell-based, human
Text: (§1) Human colon cancer cell lines COLO 205, HCT 116, LS 513 (all ATCC), primary colon epithelial cells (Cell Biologics), pancreatic cancer cell lines PANC-1, MIA PaCa-2, BxPC-3, and normal pancreatic duct epithelial cells (UCLA collection) were used in experiments. COLO 205, LS 513, BxPC-3 cells were cultivated in RPMI 1640 medium with 10% FBS, HCT 116 cells were cultivated in McCoy's 5A medium with 10% FBS, PANC-1 and MIA PaCa-2 cell lines were cultivated in DMEM medium with 10% FBS, and normal colon and pancreatic cells were maintained in Human Epithelial Cell Medium (Cell Biologics).
(§2) HCC cell lines HepG2, HuH7, primary hepatocytes, colon cell lines COLO 205, HCT 116, LS 513, primary colon epithelial cells, pancreatic cancer cell lines PANC-1, MIA PaCa-2, BxPC-3, and normal pancreatic duct epithelial cells were seeded in 96-well plates at a density 10,000 cells per well in complete medium. Next day medium was changed to medium containing 1% FBS and an AA3 inhibitor (3-100 μM). 24 h later cell viability was determined using the MTT (3-(4,5-dimethylthiazol-2-yl)-2,5-diphenyltetrazolium bromide) cell viability assay. Cells were incubated during 4 h at 37° C. with 150 μl fresh media containing 0.5 mg/ml MTT. Then 50 μl of 20% SDS in 25 mM HCl was added to each well, incubated for 4 h and the optical density at 570 nm was measured on a VMax Kinetic Microplate Reader (Molecular Devices, Sunnyvale, Calif.).

[2] = system: pancreatic cancer cell lines PANC-1, MIA PaCa-2, BxPC-3; assay: MTT cell viability, pancreatic cancer cell lines; format: cell-based, human
Text: as §1, §2

[3] = system: normal pancreatic duct epithelial cells; assay: MTT cell viability, normal pancreatic cells; format: cell-based, human
Text: as §1, §2

[4] = system: primary colon epithelial cells; assay: MTT cell viability, normal colon cells; format: cell-based, human; details: colon (FIG. 24)
Text: as §1
as §2, with “Cells were incubated during 4 h at 37° C. with 150 μl fresh media containing 0.5 mg/ml MTT.” left out

mAA3 = target: T1, mAA3 (Mus musculus, UniProt Q91XE4); details: substrate of mAA3; cited from earlier work
T1 sequence (Q91XE4 1-318): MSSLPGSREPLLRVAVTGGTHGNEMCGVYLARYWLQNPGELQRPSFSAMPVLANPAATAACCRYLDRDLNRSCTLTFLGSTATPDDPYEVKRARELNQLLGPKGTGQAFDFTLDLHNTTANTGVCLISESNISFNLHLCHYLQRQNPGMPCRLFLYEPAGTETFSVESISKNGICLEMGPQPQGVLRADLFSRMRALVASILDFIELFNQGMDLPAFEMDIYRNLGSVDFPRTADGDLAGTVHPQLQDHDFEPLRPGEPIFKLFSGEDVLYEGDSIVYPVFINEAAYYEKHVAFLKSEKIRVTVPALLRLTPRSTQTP

HepG2 cells [5] = assay: MTT cell viability, HepG2; format: cell-based, human; details: HepG2, within the micromolar range, 24 h
Protocol: as §2
(§3) To study the effect of AA3 silencing, HepG2 and HUH7 cells seeded in 96-well plates were transfected with 2 pmol AA3 siRNA using the Lipofectamine RNAiMAX reagent as per the manufacturer protocol. Cell viability was measured in the MTT assay 48 h later as described.

[6] = system: membrane associated Ras in HepG2 cells; assay: Membrane associated Ras in HepG2 cells (immunoblot); format: cell-based, human; details: HepG2, 24 h
Protocol: Cultured HCC cells and primary hepatocytes were washed with PBS buffer, treated with 0.25% Trypsin-EDTA solution (Corning) and precipitated at 1,000 rpm for 5 min. For protein extraction, HCC cells were lysed on ice by vortexing every 5 min for 30 min in RIPA buffer containing 20 mM Tris-HCl (pH 7.5), 150 mM NaCl, 5 mM EDTA, 1% Triton X-100, 0.5% sodium deoxycholate, 0.1% SDS, and 1× Halt protease inhibitor cocktail (Thermo Scientific, Waltham, Mass.). Prenylated Ras other membrane associated proteins were extracted from HCC cells using a Mem-PER Plus Kit (Thermo Scientific) according to the manufacturer's protocol. […]
HepG2 cells were seeded in 6-well plates at a density 250,000 cells per well. […] 24 h later cells were collected, washed with PBS and the membrane associated Ras proteins were extracted as described above, resolved on SDS-PAGE, and detected with the anti-Ras antibody (EMD Millipore).
To study the effect of AA3 suppression on Ras membrane association, HepG2 and HuH7 cells seeded onto 6-well plates at the same density, were transfected with 50 pmol ACY3 (AA3) Silencer Select Pre-designed siRNA (Invitrogen, Grand Island, N.Y.) using the Lipofectamine RNAiMAX reagent (Invitrogen) following the manufacturer protocol. […] After 48 h incubation, membrane associated proteins were extracted and membrane associated Ras was determined by immunoblotting as described above.

HepG2 cells [7] = assay: Levels of FC and NAFC in HepG2 cells (LC/MS); format: cell-based, human
Protocol: (§4) HUH7 and HepG2 cells were seeded in 6-well plates at a density 250,000 cells per well in complete medium. Next day the medium was changed to 2 ml DMEM with 1% FBS containing a 10-20 μM AA3 inhibitor. After 24 h incubation, the medium was collected, concentrated 10 times on a vacuum concentrator; 10 μl aliquots were used for quantitation by LC/MS and LC/MS/MS-MRM. The cells were trypsinized, washed in PBS and centrifuged at 2,000 g for 10 min. Then cell pellet was lysed on ice in 50 μl of 20 mM Tris-HCl, pH 7.5, containing 1% dodecyl maltoside (DDM) and 1× protease inhibitor cocktail (Sigma/Aldrich). After centrifugation (14,000 g, 10 min) the supernatants were diluted 4 times with methanol and centrifuged (14,000 g, 10 min), then the supernatants were diluted 10 times with water, and 10 μl aliquots were used for quantitation by LC/MS and LC/MS/MS-MRM as described above expect electrospray ionization was used with an Agilent 6460 triple quadrupole mass spectrometer.

[8] = system: normal primary hepatocytes; assay: MTT cell viability, normal primary hepatocytes; format: cell-based; details: inhibitor 10: 0-50 μM range; inhibitor 11: in comparison with HCC cell lines
Protocol: as §2, §3

HuH7 cells [9] = assay: MTT cell viability, HuH7; format: cell-based, human; details: HuH7, within the micromolar range, 24 h
Protocol: as §2, §3

HuH7 cells [10] = assay: Levels of FC and NAFC in HuH7 cells (LC/MS); format: cell-based, human
Protocol: as §4

[11] = substrate: CC(=O)CC(C)=CCCC(C)=CCCC(C)=CCN[C@@H](CS)C(=O)O; assay: Deacetylation of NAFC and NAGGC by human AA3; format: biochemical; details: other: substrate of human AA3; pH 7.5
Protocol: (§5) AA3 activity was measured using a previously described fluorescence assay. Human purified AA3 (1 μg), rat AA1 (1 μg) or immunoaffinity purified AA3 from HepG2 and HuH7 cells were assayed for 30 min at […] in […] of 50 mM sodium phosphate buffer, pH 7.5, containing 1 mM NAFC or NAGGC both from Cayman Chemical (Ann Arbor, Mich.). Then 100 μl of the reaction mixture was added to 1 ml of 50 mM sodium phosphate buffer containing 1 mM fluorescamine, and fluorescence was measured (390 nm excitation, 475 nm emission).
(§6) To study the deacetylation of NAFC and NAGGC mediated by AA3, 50 μl aliquots from the reaction assays were injected onto Agilent Eclipse Plus C18 reverse phase HPLC column equilibrated with 0.1% formic acid, and eluted with acetonitrile/0.1% formic acid gradient (0-90%, 20 min). The effluent from the column was passed to an Ionspray ion source connected to a triple quadrupole mass-spectrometer (MS) API III+(PerkinElmer, Boston, Mass.). NAFC and NAGGC (Cayman Chemical) were used for MS calibration.

[12] = substrate: CC(=O)C/C(C)=C/CC/C(C)=C/CC/C(C)=C/CC/C(C)=C/CN[C@@H](CS)C(=O)O; assay: Deacetylation of NAFC and NAGGC by human AA3; format: biochemical; details: other: substrate of human AA3; pH 7.5
Protocol: as §5, §6

[13] = HepG2, 10-20 μM inhibitor, 24 h, vs untreated
[14] = lines expressing mutant (mut) KRas
[15] = HuH7, 10-20 μM inhibitor, 24 h, vs untreated

Cc1ccc(-n2sc3ccccc3c2=O)cc1 [Inhibitor 21, 2-(4-methylphenyl)-1,2-benzothiazol-3-one]
growth of colon cancer cell lines ([1]; lines expressing wild type (wt) or mutant (mut) KRas): suppress growth | toxicity for pancreatic cancer cells [2]: toxic | efficiency for pancreatic cell lines ([2]; lines expressing either wild type (wt) or mutant (mut) KRas): efficient | toxicity for pancreatic normal cells [3]: toxic | toxicity for normal vs cancer cell lines ([3]; pancreatic (FIG. 25)): significantly less toxic | toxicity for normal vs cancer cell lines [4]: significantly less toxic

CC(=O)N[C@@H](CSC(Cl)(Cl)C(F)F)C(=O)O [N-Acetyl-S-(2,2-difluoro-1,1-dichloroethyl)-L-cysteine]
Vmax, times lower than N-acetyl-S-(2,2-dichloro-1,1-difluoroethyl)-L-cysteine (mAA3): ~30 times | affinity, times higher than N-acetyl-S-(2,2-dichloro-1,1-difluoroethyl)-L-cysteine (mAA3): ~18 times

COc1ccc(CSc2nc3cc(S(N)(=O)=O)ccc3n2C)cc1F [Inhibitor 11, 2-[(3-Fluoro-4-methoxybenzyl)sulfanyl]-1-methyl-1H-benzimidazole-5-sulfonamide]
toxicity (cell viability) (HepG2 cells [5]): toxic | level of the membrane associated Ras decreased by, % of control [6]: ~50% | FC level (HepG2 cells [7]; [13]): not significantly changed | level of NAFC (HepG2 cells [7]; [13]): significantly increased | [FC]/[NAFC] ratio (HepG2 cells [7]; HepG2 treated cells (untreated ~8.4)): ~2.8 | growth of colon cancer cell lines [1, 14]: suppress growth | toxicity to normal primary hepatocytes [8]: significantly less toxic | toxicity for pancreatic cancer cells [2]: toxic | toxicity for pancreatic normal cells [3]: toxic | toxicity (cell viability) (HuH7 cells [9]): toxic | FC level decreased by (HuH7 cells [10]; [15]): approximately 50% | level of NAFC (HuH7 cells [10]; [15]): significantly increased | [FC]/[NAFC] ratio (HuH7 cells [10]; HuH7 treated cells (untreated ~2.8)): ~0.9

Cc1ccc(N2C(=O)/C(=C/c3cc([N+](=O)[O-])cc(Br)c3O)SC2=S)c(C)c1 [Inhibitor 3, (5Z)-5-(3-Bromo-2-hydroxy-5-nitrobenzylidene)-3-(2,4-dimethylphenyl)-2-thioxo-1,3-thiazolidin-4-one]
growth of colon cancer cell lines [1, 14]: suppress growth | toxicity for pancreatic cancer cells [2]: toxic | toxicity for pancreatic normal cells [3]: toxic

B1: human AA3 (Homo sapiens) (protein)
chain: MCSLPVPREPLRRVAVTGGTHGNEMSGVYLARHWLHAPAELQRASFSAVPVLANPAATSGCRRYVDHDLNRTFTSSFLNSRPTPDDPYEVTRARELNQLLGPKASGQAFDFVLDLHNTTANMGTCLIAKSSHEVFAMHLCRHLQLQYPELSCQVFLYQRSGEESYNLDSVAKNGLGLELGPQPQGVLRADIFSRMRTLVATVLDFIELFNQGTAFPAFEMEAYRPVGVVDFPRTEAGHLAGTVHPQLQDRDFQPLQPGAPIFQMFSGEDLLYEGESTVYPVFINEAAYYEKGVAFVQTEKFTFTVPAMPALTPAPSPAS
notes: 6His (N); made in house; host or cells: E. coli
Km [11]: 25 µM | kcat [11]: 2 s⁻¹ | Km [12]: 140 µM | kcat [12]: 7.2 s⁻¹
